Experimental data reported in paper PMC2929362 (Bioorganic & medicinal chemistry, 2009).
“Also recorded” adds a separate entry of the source.

Assays:
Hst2 [1] = target: T1, Hst2 (Saccharomyces cerevisiae, UniProt P53686); assay: biochemical; format: biochemical; conditions: for activity at 50 µM: read-out: % Activity at 50 μM; for activity at 500 µM: read-out: % Activity at 500 μM; for inhibition of Hst2 deacetylation by scaffold analogs (in words): SAR discussion
Hst2 [2] = target: T1, Hst2; assay: Competition assay; format: biochemical; conditions: for α: mixed inhibition model
human SIRT2 = target: T2, human SIRT2 (Homo sapiens, UniProt Q8IXJ6); assay: Inhibition of a panel of human sirtuin homologues: SIRT2; format: biochemical
T2 sequence (Q8IXJ6 1-352 isoform Q8IXJ6-2): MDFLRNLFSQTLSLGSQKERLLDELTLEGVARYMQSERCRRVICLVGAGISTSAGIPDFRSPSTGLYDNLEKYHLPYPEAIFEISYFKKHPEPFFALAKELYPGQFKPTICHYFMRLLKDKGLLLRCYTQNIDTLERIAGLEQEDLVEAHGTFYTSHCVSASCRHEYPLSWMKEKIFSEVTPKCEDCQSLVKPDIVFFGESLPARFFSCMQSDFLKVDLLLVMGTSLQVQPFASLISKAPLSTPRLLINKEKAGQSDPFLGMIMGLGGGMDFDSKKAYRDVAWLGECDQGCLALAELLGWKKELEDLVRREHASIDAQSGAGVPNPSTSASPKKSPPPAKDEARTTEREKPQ

Hst2 [3] = target: T1, Hst2; assay: Reversibility assay; format: biochemical; conditions: Hst2 incubated with 10× IC50 of inhibitor, then 100-fold dilution
human SIRT3 = target: T3, human SIRT3 (Homo sapiens, UniProt Q9NTG7); assay: Inhibition of a panel of human sirtuin homologues: SIRT3; format: biochemical
T3 sequence (Q9NTG7 1-399): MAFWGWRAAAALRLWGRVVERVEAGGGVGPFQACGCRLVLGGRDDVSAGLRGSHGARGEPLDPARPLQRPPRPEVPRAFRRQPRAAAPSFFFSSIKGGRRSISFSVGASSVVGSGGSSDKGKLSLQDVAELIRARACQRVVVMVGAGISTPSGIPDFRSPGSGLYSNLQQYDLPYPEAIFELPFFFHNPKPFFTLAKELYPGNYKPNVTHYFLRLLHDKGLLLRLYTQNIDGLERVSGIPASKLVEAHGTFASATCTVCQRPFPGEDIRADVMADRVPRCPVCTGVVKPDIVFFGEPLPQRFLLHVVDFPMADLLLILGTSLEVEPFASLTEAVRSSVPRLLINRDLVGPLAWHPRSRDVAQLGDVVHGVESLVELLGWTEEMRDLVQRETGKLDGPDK

[4] = target: T4, full length human SIRT1 (FL SIRT1) (Homo sapiens, UniProt Q96EB6); assay: Fluorigenic
T4 sequence (Q96EB6 1-747): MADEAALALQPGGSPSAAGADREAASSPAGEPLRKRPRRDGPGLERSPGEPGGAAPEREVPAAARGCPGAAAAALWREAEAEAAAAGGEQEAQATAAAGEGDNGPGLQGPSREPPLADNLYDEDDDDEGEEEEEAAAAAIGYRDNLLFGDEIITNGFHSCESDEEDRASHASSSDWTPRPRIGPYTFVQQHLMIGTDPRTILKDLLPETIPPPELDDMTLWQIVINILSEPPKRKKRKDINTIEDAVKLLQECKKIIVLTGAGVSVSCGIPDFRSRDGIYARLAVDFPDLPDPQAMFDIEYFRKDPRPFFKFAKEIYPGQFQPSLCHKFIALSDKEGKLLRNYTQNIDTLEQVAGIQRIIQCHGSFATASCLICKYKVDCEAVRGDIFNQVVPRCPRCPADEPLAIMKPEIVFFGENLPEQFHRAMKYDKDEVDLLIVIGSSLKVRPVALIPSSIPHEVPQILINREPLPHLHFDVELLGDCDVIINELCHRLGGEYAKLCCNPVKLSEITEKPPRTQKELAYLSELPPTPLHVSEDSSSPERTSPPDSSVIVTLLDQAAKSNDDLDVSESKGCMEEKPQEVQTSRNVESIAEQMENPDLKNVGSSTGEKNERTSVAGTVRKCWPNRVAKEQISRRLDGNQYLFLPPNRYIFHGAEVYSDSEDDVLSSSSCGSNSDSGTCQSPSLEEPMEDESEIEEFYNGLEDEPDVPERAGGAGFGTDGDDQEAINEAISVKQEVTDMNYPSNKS

Hst2 [5] = target: T1, Hst2; assay: biochemical; conditions: for IC50 (Table 5, scaffold 12 analogs, Hst2): Hst2 fluorigenic assay

T1 sequence (P53686 1-294): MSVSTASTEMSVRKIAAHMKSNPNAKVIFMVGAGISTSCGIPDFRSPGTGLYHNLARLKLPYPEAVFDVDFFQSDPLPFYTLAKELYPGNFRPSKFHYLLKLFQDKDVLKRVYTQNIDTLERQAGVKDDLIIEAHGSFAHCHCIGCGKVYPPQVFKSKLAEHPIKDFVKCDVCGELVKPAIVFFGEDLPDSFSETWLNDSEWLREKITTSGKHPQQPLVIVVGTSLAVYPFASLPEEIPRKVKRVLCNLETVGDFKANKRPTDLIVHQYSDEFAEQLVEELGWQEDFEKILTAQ

CCc1ccc(OCCCC(=O)Oc2ccc3c(c2)oc(=O)c2ccccc23)cc1 [Compound 11, 4-(4-Ethyl-phenoxy)-butyric acid 6-oxo-6H-benzo[c]chromen-3-yl ester]
activity at 50 µM (Hst2 [1]): < 1% | activity at 500 µM (Hst2 [1]): < 1% | Inhibition Mechanism (Hst2 [2]; substrate NAD+): fully non-competitive inhibition model; also recorded: NC (full) | Inhibition Mechanism (Hst2 [2]; substrate acetyl-lysine): partial non-competitive inhibition model; also recorded: NC (partial) | inhibition of human SIRT2 (in words) (human SIRT2): potent inhibitor of SIRT2 | slope of progress curve, % of enzyme plus DMSO control (Hst2 [3]): 82% | inhibition of human SIRT3 (in words) (human SIRT3): but not SIRT3

O=C(O)CCN1Cc2ccccc2C1=O [Compound 12, 3-(1-Oxo-1,3-dihydro-isoindol-2-yl)-propionic acid]
Inhibition Mechanism (Hst2 [2]; substrate NAD+): fully non-competitive inhibition model; also recorded: NC (full) | Inhibition Mechanism (Hst2 [2]; substrate acetyl-lysine): fully non-competitive inhibition model; also recorded: NC (full) | inhibition of human SIRT2 (in words) (human SIRT2): only weak inhibitory activity | slope of progress curve, % of enzyme plus DMSO control (Hst2 [3]): 96% | inhibition of human SIRT3 (in words) (human SIRT3): only weak inhibitory activity

Oc1c(Cl)cc(Cl)c(Cl)c1Cc1c(O)c(Cl)cc(Cl)c1Cl [Compound 13, hexachlorophene]
Ki (Hst2 [2]; with respect to NAD+ (varied 5-80 μM), acetyl-lysine substrate 100 μM): 3.9 ± 0.7 µM | Ki (Hst2 [2]; with respect to acetyl-lysine substrate (varied 3-50 μM), NAD+ 160 μM): 2.5 ± 1 µM | Inhibition Mechanism (Hst2 [2]; substrate NAD+): fully non-competitive inhibition model; also recorded: NC (full) | Inhibition Mechanism (Hst2 [2]; substrate acetyl-lysine): fully mixed inhibition model; also recorded: Mixed (full) | α (Hst2 [2]; substrate acetyl-lysine): 13.4 | IC50 [4]: 34 ± 10 µM | IC50 (Hst2 [5]): 12.5 ± 0.6 µM

COCC#CC1c2cc(O)c(OC)cc2CCN1C (centres unmarked) [Compound 14a, 6-Methoxy-1-(3-methoxy-prop-1-ynyl)-2-methyl-1,2,3,4-tetrahydro-isoquinolin-7-ol]
Inhibition Mechanism (Hst2 [2]; substrate NAD+): fully mixed inhibition model; also recorded: Mixed (full) | α (Hst2 [2]; substrate NAD+): 2.6 | Inhibition Mechanism (Hst2 [2]; substrate acetyl-lysine): fully non-competitive inhibition model; also recorded: NC (full) | inhibition of human SIRT2 (in words) (human SIRT2): only weak inhibitory activity | inhibition of human SIRT3 (in words) (human SIRT3): only weak inhibitory activity

COCC#CC1c2cc(O)c(OC)cc2CCN1Cc1ccc(OC)cc1 (centres unmarked) [Compound 14b]
activity at 50 µM (Hst2 [1]): 92% | activity at 500 µM (Hst2 [1]): 2%

C[S+]([O-])CCC(C(=O)O)N1C(=O)c2ccccc2C1=O (centres unmarked) [Compound 00032]
IC50 (Table 5, scaffold 12 analogs, Hst2) (Hst2 [5]): No inhibition

CC(C)C(=O)CCN1C(=O)c2ccccc2C1=O [Compound 04265]
IC50 (Table 5, scaffold 12 analogs, Hst2) (Hst2 [5]): No inhibition

O=C(O)CCN1C(=O)c2cc(Cl)c(Cl)cc2C1=O [Compound 39008]
IC50 (Table 5, scaffold 12 analogs, Hst2) (Hst2 [5]): No inhibition

Nc1ccc2c(c1)C(=O)N(CCC(=O)O)C2 [Compound 42071]
IC50 (Table 5, scaffold 12 analogs, Hst2) (Hst2 [5]): No inhibition

O=C(O)CCCN1C(=O)c2ccccc2C1=O [Compound 47032]
IC50 (Table 5, scaffold 12 analogs, Hst2) (Hst2 [5]): No inhibition

O=C(O)CCN1C(=O)c2ccc(-c3nc4ccccc4c(=O)o3)cc2C1=O [Compound 47054]
IC50 (Table 5, scaffold 12 analogs, Hst2) (Hst2 [5]): No inhibition

O=C1c2ccccc2C(=O)N1CCBr [Compound 91032]
IC50 (Table 5, scaffold 12 analogs, Hst2) (Hst2 [5]): No inhibition

Cc1cc(Cc2cc(C)c(O)c(C)c2)cc(C)c1O [Compound 97252]
inhibition of Hst2 deacetylation by scaffold analogs (in words) (Hst2 [1]): most inhibitory activity

Cc1cccc(OCC(=O)Oc2ccc3c(C)cc(=O)oc3c2)c1 [Compound 5140108]
inhibition of Hst2 deacetylation by scaffold analogs (in words) (Hst2 [1]): showed some deacetylase inhibition

CCc1ccc(OCCCC(=O)Oc2ccc3c(C)cc(=O)oc3c2)cc1 [Compound 6802623]
inhibition of Hst2 deacetylation by scaffold analogs (in words) (Hst2 [1]): significantly reduced potency

COc1ccc(OCCCC(=O)Oc2ccc3c(c2)CCC3)cc1 [Compound 6978945]
inhibition of Hst2 deacetylation by scaffold analogs (in words) (Hst2 [1]): significantly reduced potency

Cc1ccc(OCCCC(=O)Oc2ccc3c(c2)CCC3)c(C)c1 [Compound 7985301]
inhibition of Hst2 deacetylation by scaffold analogs (in words) (Hst2 [1]): significantly reduced potency
